Assay results published in paper PMC3997483, “Aminostyrylbenzofuran Directly Reduces Oligomeric Amyloid-β and Reverses Cognitive Deficits in Alzheimer Transgenic Mice” (PLoS ONE, 2014).
Like-named read-outs stand apart in the source and are kept apart here.

Columns and labels:
Aβ40 and Aβ42 = assay: Aβ40/Aβ42 sandwich ELISA of brain tissue, prophylactic trial; format: in vivo, mouse
Method: Mice subjected to behavior tests were sacrificed and levels of Aβ in their brains were analyzed. After removing olfactory lobe and cerebellum of brain, hippocampus and cerebral cortex were separated. The separated regions were Dounce-homogenized first in 10-fold mass of a lysis buffer (RIPA, 150 mM NaCl, 1% NP-40, 0.5% deoxycholic acid, 0.1% SDS and 50 mM tris, pH 8.0) or tris buffer (50 mM tris and pH 8.0) containing protease inhibitor cocktail (Pierce, USA) for prophylactic or therapeutic treatment groups, respectively. […] The supernatant (soluble Aβ fraction) was collected and stored at −70°C until analyzed. The resulting pellet was solubilized in 20-fold mass of cold guanidine solution (5 M guanidine HCl, 50 mM tris HCl and pH 8.0) at room temperature for 4 hr followed by dilution with cold Dulbecco's phosphate buffered saline (PBS) with 5% BSA and 0.03% tween-20. […] The tissue concentrations of Aβ40 and Aβ42 in the soluble and insoluble fraction were measured using Aβ-detecting sandwich enzyme-linked immunosorbent assay (ELISA) kit (BioSource, USA). The levels of soluble Aβ oligomers were measured by a dot-blot immunoassay with an anti-oligomer antibody and an anti-Aβ antibody on soluble fraction of hippocampus homogenates. The homogenate sample (3 µL) was spotted onto nitrocellulose membrane (Whatman, UK). After blocking with 5% BSA in tris-buffered saline (TBS) for 1 hr at room temperature, the membrane was incubated with rabbit anti-oligomer polyclonal antibody (A11; 1∶1,000; Millipore, USA) overnight at 4°C, followed by incubation with HRP-secondary anti-rabbit antibody (1∶5,000; Millipore, USA) for 1 hr at room temperature. Blots were developed using ECL reagents (PerkinElmer, USA). Blots were re-identified after oligomeric antibody was stripped and re-probing with the anti-Aβ antibody 6E10 (1∶1,000; Signet, UK). The density of dots was analyzed with Multi Gauge program (Fuji Film, Japan) and the data was normalized to the average density of the TG control group. […] Membrane was incubated in a 5% solution of non-fat dry milk for 1 hr at room temperature. […]

[1] = Plasma and brain pharmacokinetics (BBB penetration) after PO in mice; format: in vivo; conditions: for AUC(0-t): read-out: AUC0–24h
Method: Pharmacokinetics profile of KMS88009 was obtained using ICR mice, SD rats, beagle dogs and cynomolgus monkeys. Animals were fasted overnight before KMS88009 administration. Mice were divided into 2 groups to receive KMS88009 as a single dose of 2.1 mg/kg intravenous (IV) bolus or 10 mg/kg orally (PO) by gavage. Additionally, KMS88009 was administered orally to estimate the BBB penetration in mice (10, 30 and 100 mg/kg). […] Dog received KMS88009 either as an IV bolus (1 mg/kg) via the great saphenous vein or by oral gavage (4 mg/kg). KMS88009 was administrated to monkeys as an IV bolus (1 mg/kg) via the femoral vein or by oral gavage (4 mg/kg). Vehicle for IV and PO administration was DMSO/tween-20/saline (3.3∶19.8∶[…]). […]. Brain samples were weighed and Daunce-homogenized in 10-fold volume of ice-chilled 4% bovine serum albumin (BSA) solution at room temperature. Plasma and brain homogenates were kept frozen at −70°C until analysis. The levels of KMS88009 were determined by the LC-MS/MS analysis. Pharmacokinetic parameters, time to the maximum concentration (Tmax), maximum concentration (Cmax), elimination half-life (T1/2), volume of distribution (Vd), clearance (Cl) and mean residual time (MRT), of KMS88009 were calculated based on plasma concentration-time data by a non-compartmental method using WinNonlin Version 5.2 (Pharsight, USA). Area under the curve from 0 to 24 hr (AUC0-24h) and area under the curve from 0 to infinity (AUCINF) were obtained by linear and log linear trapezoidal summations.

[2] = Metabolic stability in liver microsomes; format: in vitro ADME; conditions: dog liver microsomes
soluble Aβ oligomers = assay: Dot-blot immunoassay (A11/6E10) of soluble Aβ oligomers in hippocampus, prophylactic trial; format: in vivo, mouse; conditions: hippocampus soluble fraction
Method: Mice subjected to behavior tests were sacrificed and levels of Aβ in their brains were analyzed. After removing olfactory lobe and cerebellum of brain, hippocampus and cerebral cortex were separated. The separated regions were Dounce-homogenized first in 10-fold mass of a lysis buffer (RIPA, 150 mM NaCl, 1% NP-40, 0.5% deoxycholic acid, 0.1% SDS and 50 mM tris, pH 8.0) or tris buffer (50 mM tris and pH 8.0) containing protease inhibitor cocktail (Pierce, USA) for prophylactic or therapeutic treatment groups, respectively. The homogenates were then centrifuged at 16,000 g for 20 min at 4°C. The supernatant (soluble Aβ fraction) was collected and stored at −70°C until analyzed. The resulting pellet was solubilized in 20-fold mass of cold guanidine solution (5 M guanidine HCl, 50 mM tris HCl and pH 8.0) at room temperature for 4 hr followed by dilution with cold Dulbecco's phosphate buffered saline (PBS) with 5% BSA and 0.03% tween-20. The diluent was centrifuged at 16,000 g for 20 min at 4°C to obtain the insoluble Aβ fraction. The tissue concentrations of Aβ40 and Aβ42 in the soluble and insoluble fraction were measured using Aβ-detecting sandwich enzyme-linked immunosorbent assay (ELISA) kit (BioSource, USA). The levels of soluble Aβ oligomers were measured by a dot-blot immunoassay with an anti-oligomer antibody and an anti-Aβ antibody on soluble fraction of hippocampus homogenates. The homogenate sample (3 µL) was spotted onto nitrocellulose membrane (Whatman, UK). After blocking with 5% BSA in tris-buffered saline (TBS) for 1 hr at room temperature, the membrane was incubated with rabbit anti-oligomer polyclonal antibody (A11; 1∶1,000; Millipore, USA) overnight at 4°C, followed by incubation with HRP-secondary anti-rabbit antibody (1∶5,000; Millipore, USA) for 1 hr at room temperature. Blots were developed using ECL reagents (PerkinElmer, USA). […] The density of dots was analyzed with Multi Gauge program (Fuji Film, Japan) and the data was normalized to the average density of the TG control group. […]

[3] = cortex, 10-100 mg/kg/day groups
[4] = ICR, mouse, brain, mice PO 10 mg/kg
[5] = ICR, mouse, brain, mice PO 30 mg/kg
[6] = ICR, mouse, brain, mice PO 100 mg/kg
[7] = ICR, mouse, plasma, mice PO 10 mg/kg
[8] = ICR, mouse, plasma, mice PO 30 mg/kg
[9] = ICR, mouse, plasma, mice PO 100 mg/kg

**Q.** With `COc1ccc2cc(C=Cc3ccc(N(C)C)cc3)oc2c1` [KMS88009, 6-methoxy-2-(4-dimethylaminostyryl) benzofuran] as the molecule, how does the “reduction of soluble Aβ40 level vs TG group” value (Aβ40 and Aβ42; [3]) read?
**A.** 44∼60%

**Q.** And the “reduction of soluble Aβ42 level vs vehicle-treated TG mice” value (Aβ40 and Aβ42; [3])?
**A.** 59∼66%

**Q.** And the “reduction of soluble Aβ40 level vs TG group” value (Aβ40 and Aβ42; hippocampus, except the 10 mg/kg/day group)?
**A.** 34∼36%

**Q.** What about the Kp ([1]; ICR, mouse, brain, mice, PO, read-out: Level (AUC0–24h) in the brain relative to plasma) of the same molecule?
**A.** > 12

**Q.** And the Cmax [1, 4]?
**A.** 6370 ng/g

**Q.** What about the Tmax [1, 4] of the same molecule?
**A.** 2 h

**Q.** What about the Cmax [1, 5] of the same molecule?
**A.** 17800 ng/g

**Q.** What about the Tmax [1, 5] of the same molecule?
**A.** 4 h

**Q.** And the Cmax [1, 6]?
**A.** 23300 ng/g

**Q.** And the Tmax [1, 6]?
**A.** 10 h

**Q.** What about the Cmax [1, 7] of the same molecule?
**A.** 744 ng/mL

**Q.** What about the Tmax [1, 7] of the same molecule?
**A.** 1 h

**Q.** What about the AUC(0-t) [1, 7] of the same molecule?
**A.** 4570 ng·h/mL

**Q.** And the Cmax [1, 8]?
**A.** 1640 ng/mL

**Q.** What about the Tmax [1, 8] of the same molecule?
**A.** 1 h

**Q.** What about the AUC(0-t) [1, 8] of the same molecule?
**A.** 13400 ng·h/mL

**Q.** And the Cmax [1, 9]?
**A.** 2710 ng/mL

**Q.** And the Tmax [1, 9]?
**A.** 2 h

**Q.** And the AUC(0-t) [1, 9]?
**A.** 30500 ng·h/mL

**Q.** And the “AUC0–24h” value ([1]; brain, mice PO 10 mg/kg)?
**A.** 55395.5 ng·h/g

**Q.** What about the “AUC0–24h” value ([1]; brain, mice PO 30 mg/kg) of the same molecule?
**A.** 205268.3 ng·h/g

**Q.** What about the “AUC0–24h” value ([1]; brain, mice PO 100 mg/kg) of the same molecule?
**A.** 367538.5 ng·h/g

**Q.** And the half-life at 5 µM [2]?
**A.** 0.355 ± 0.0133 h

**Q.** What about the remaining at 1 h, 5 µM ([2]; read-out: Remaining % of parent molecule at 60 min.) of the same molecule?
**A.** 14.8 ± 0.2%

**Q.** And the “reduction of soluble oligomeric Aβ vs vehicle-treated TG group” value (shortened to “reduction of soluble oligomeric Aβ”) (soluble Aβ oligomers; 10 mg/kg/day)?
**A.** 43.1%

**Q.** And the “reduction of soluble oligomeric Aβ” value (soluble Aβ oligomers; 30 mg/kg/day)?
**A.** 43.2%

**Q.** What about the “reduction of soluble oligomeric Aβ” value (soluble Aβ oligomers; 100 mg/kg/day) of the same molecule?
**A.** 46.4%
